Data on 11 compounds can be found in patent US11130756B2, “[1,2,4]Triazolo[4,3-A]pyridinyl substituted indole compounds” (BRISTOL-MYERS SQUIBB COMPANY, priority 2017, dated 2021).

Holding throughout (type): cell-based
Test [1] has as its target T1, human TLR7 (Homo sapiens, UniProt Q9NYK1).
T1 construct: host or cells: HEK-Blue cells
T1 sequence (Q9NYK1 27-1049): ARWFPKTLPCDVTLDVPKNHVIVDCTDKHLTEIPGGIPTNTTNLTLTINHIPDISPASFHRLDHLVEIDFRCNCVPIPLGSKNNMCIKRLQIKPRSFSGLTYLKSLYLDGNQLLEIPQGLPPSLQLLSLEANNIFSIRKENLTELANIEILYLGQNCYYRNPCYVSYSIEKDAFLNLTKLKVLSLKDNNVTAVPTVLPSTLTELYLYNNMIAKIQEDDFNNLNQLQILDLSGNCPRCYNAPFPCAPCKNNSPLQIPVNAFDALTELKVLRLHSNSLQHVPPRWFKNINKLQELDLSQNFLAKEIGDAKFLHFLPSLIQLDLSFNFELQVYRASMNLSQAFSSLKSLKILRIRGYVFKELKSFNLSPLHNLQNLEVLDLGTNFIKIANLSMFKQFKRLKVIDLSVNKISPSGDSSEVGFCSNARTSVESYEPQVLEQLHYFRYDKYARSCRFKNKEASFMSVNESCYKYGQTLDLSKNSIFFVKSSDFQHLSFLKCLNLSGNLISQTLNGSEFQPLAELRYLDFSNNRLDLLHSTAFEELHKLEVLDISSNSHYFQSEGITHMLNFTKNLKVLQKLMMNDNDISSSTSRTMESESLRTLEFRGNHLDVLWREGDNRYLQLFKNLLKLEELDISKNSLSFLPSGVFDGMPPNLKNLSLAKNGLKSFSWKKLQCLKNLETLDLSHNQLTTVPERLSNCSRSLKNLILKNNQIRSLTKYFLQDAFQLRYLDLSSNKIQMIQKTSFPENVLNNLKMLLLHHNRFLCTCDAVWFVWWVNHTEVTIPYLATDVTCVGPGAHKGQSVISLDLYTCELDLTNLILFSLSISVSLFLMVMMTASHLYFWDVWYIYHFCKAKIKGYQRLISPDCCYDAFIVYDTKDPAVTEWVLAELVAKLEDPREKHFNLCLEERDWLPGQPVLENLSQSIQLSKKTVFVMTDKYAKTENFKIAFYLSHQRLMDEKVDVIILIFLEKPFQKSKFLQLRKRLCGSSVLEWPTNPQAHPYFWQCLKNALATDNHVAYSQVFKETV
Nature of the test: TLR7 inhibition reporter assay (HEK-Blue, SEAP). The note with it: HEK-Blue cells overexpressing human TLR7, gardiquimod 7.5 μM, 22 hour incubation. The procedure:
(§1) TLR7/8/9 Inhibition Reporter Assays
(§2) HEK-Blue™-cells (Invivogen) overexpressing human TLR7, TLR8 or TLR9 receptors were used for screening inhibitors of these receptors using an inducible SEAP (secreted embryonic alkaline phosphatase) reporter gene under the control of the IFN-β minimal promoter fused to five NF-κB and AP-1-binding sites. Briefly, cells are seeded into Greiner 384 well plates (15000 cells per well for TLR7, 20,000 for TLR8 and 25,000 for TLR9) and then treated with test compounds in DMSO to yield a final dose response concentration range of 0.05 nM-50 μM. After a 30 minute compound pre-treatment at room temperature, the cells are then stimulated with a TLR7 ligand (gardiquimod at a final concentration of 7.5 μM), TLR8 ligand (R848 at a final concentration of 15.9 μM) or TLR9 ligand (ODN2006 at a final concentration of 5 nM) to activate NF-κB and AP-1 which induce the production of SEAP. After a 22 hour incubation at 37° C., 5% CO2, SEAP levels are determined with the addition of HEK-Blue™ Detection reagent (Invivogen), a cell culture medium that allows for detection of SEAP, according to manufacturer's specifications. The percent inhibition is determined as the % reduction in the HEK-Blue signal present in wells treated with agonist plus DMSO alone compared to wells treated with a known inhibitor.
A general note: Reporter assays use an easily measured gene product as a stand-in for the process of interest.

For test [2], the target named is T2, human TLR8 (Homo sapiens, UniProt Q9NR97).
T2 construct: host or cells: HEK-Blue cells
T2 sequence (Q9NR97 27-1041): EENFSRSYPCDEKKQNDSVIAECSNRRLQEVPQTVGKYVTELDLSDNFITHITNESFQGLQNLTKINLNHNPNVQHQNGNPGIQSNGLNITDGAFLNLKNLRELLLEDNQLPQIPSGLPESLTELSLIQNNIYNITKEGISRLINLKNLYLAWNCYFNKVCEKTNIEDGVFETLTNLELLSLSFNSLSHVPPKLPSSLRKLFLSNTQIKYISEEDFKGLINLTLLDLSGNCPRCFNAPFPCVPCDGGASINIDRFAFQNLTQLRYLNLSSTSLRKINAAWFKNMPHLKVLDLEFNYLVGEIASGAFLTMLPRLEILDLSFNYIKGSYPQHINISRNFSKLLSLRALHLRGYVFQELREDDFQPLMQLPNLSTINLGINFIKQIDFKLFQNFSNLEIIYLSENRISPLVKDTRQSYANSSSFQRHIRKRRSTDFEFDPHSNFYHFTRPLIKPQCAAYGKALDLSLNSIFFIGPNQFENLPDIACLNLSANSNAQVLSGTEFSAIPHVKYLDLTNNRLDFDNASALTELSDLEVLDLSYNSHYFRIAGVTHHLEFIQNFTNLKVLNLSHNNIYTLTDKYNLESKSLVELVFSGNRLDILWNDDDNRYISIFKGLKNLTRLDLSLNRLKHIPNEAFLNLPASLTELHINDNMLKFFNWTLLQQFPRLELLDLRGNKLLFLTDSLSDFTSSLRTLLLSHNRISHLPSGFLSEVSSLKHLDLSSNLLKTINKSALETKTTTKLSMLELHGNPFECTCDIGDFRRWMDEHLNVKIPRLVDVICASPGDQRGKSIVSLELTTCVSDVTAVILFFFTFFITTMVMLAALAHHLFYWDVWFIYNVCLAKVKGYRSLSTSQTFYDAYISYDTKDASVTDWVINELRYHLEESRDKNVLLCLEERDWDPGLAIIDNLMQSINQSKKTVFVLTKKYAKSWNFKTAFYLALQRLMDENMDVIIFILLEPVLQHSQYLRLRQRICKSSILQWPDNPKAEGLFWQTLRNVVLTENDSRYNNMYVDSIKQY
Nature of the test: TLR8 inhibition reporter assay (HEK-Blue, SEAP). Particulars: HEK-Blue cells overexpressing human TLR8, R848 15.9 μM, 22 hour incubation. The procedure:
as §1, §2

The target in test [3] is T3, human TLR9 (Homo sapiens, UniProt Q9NR96).
T3 construct: host or cells: HEK-Blue cells
T3 sequence (Q9NR96 26-1032): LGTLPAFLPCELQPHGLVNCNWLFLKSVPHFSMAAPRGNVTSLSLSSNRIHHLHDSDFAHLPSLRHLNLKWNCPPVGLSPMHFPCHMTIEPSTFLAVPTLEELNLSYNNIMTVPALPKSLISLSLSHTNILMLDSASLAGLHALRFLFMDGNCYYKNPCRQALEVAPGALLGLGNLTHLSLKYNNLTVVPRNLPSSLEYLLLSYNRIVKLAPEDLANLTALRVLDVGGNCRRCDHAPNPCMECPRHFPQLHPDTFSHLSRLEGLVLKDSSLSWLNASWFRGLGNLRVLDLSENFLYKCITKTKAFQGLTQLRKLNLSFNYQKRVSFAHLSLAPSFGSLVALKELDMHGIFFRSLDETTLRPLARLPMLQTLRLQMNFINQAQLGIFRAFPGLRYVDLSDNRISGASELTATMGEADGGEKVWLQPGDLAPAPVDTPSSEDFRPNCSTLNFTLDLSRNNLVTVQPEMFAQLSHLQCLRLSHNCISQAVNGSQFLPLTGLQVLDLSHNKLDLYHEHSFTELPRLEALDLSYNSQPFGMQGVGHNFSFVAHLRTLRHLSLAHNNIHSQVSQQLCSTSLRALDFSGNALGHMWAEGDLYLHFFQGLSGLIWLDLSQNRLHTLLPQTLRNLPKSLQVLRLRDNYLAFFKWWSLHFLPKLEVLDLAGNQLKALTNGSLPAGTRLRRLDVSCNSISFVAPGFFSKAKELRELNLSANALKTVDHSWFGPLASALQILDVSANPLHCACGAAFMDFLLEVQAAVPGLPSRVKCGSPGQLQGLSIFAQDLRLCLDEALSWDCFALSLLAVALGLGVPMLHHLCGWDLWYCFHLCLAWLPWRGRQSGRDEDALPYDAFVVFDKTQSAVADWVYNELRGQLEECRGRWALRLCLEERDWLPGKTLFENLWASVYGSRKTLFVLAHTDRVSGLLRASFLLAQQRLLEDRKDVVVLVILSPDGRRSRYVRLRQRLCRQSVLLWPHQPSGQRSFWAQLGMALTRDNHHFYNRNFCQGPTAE
Nature of the test: TLR9 inhibition reporter assay (HEK-Blue, SEAP). The note with it: HEK-Blue cells overexpressing human TLR9, ODN2006 5 nM, 22 hour incubation. How it is done:
as §1, §2

Usually IC50 stands for the concentration that inhibits the measured activity by half. Read a high IC50 as weaker potency in that assay. In the case of `Cc1cc(-c2[nH]c3ccc(C4CCNCC4)cc3c2C(C)C)c(C)n2cnnc12` [Example 9, 6-(3-isopropyl-5-(piperidin-4-yl)-1H-indol-2-yl)-5,8-dimethyl-[1,2,4] triazolo[4,3-a]pyridine], the figures for the half-inhibitory concentration (IC50) in test [1], in test [2] and in test [3] were 0.031 µM, 0.0115 µM and 0.746 µM, respectively.

For `Cc1c(-c2[nH]c3ccc(C4CCNCC4)cc3c2C(C)C)cn2cnnc2c1Cl` [Example 10, 8-chloro-6-(3-isopropyl-5-(piperidin-4-yl)-1H-indol-2-yl)-7-methyl-[1,2,4]triazolo[4,3-a]pyridine], the IC50 came out at 0.0046 µM in test [1], 0.107 µM in test [2] and 3.12 µM in test [3].

Regarding `COc1cc(-c2[nH]c3ccc(C4CCNCC4)cc3c2C(C)C)cn2cnnc12` [Example 11, 6-(3-isopropyl-5-(piperidin-4-yl)-1H-indol-2-yl)-8-methoxy-[1,2,4]triazolo[4,3-a]pyridine], the IC50 in test [1] was 0.0062 µM; in test [2], 0.074 µM; in test [3], 0.563 µM.

Turning to `Cc1cc(-c2[nH]c3ccc(C4CCN(CC(=O)N(C)C)CC4)cc3c2C(C)C)cn2cnnc12` [Example 12, 2-(4-(3-isopropyl-2-(8-methyl-[1,2,4]triazolo[4,3-a]pyridin-6-yl)-1H-indol-5-yl)piperidin-1-yl)-N,N-dimethylacetamide], the IC50 in test [1] came out at 0.0015 µM; in test [2] it was 0.0069 µM; in test [3], 1.9 µM.

As to `CNC(=O)CN1CCC(c2ccc3[nH]c(-c4ccc5nncn5c4)c(C(C)C)c3c2)CC1` [Example 13, 2-(4-(2-([1,2,4]triazolo[4,3-a]pyridin-6-yl)-3-isopropyl-1H-indol-5-yl)piperidin-1-yl)-N-methylacetamide], the IC50 in test [1] was determined as 0.0068 µM; in test [2], 0.098 µM; in test [3], 1.11 µM.

Turning to `CC(C)c1c(-c2ccc3nncn3c2)[nH]c2ccc(C3CCN(CC(=O)N(C)C)CC3)cc12` [Example 14, 2-(4-(2-([1,2,4]triazolo[4,3-a]pyridin-6-yl)-3-isopropyl-1H-indol-5-yl)piperidin-1-yl)-N,N-dimethylacetamide], the IC50 was 0.0318 µM in test [1], 0.308 µM in test [2] and 0.222 µM in test [3].

Consider `CNC(=O)CN1CCC(c2ccc3[nH]c(-c4cn5cnnc5cc4C)c(C(C)C)c3c2)CC1` [Example 15, 2-(4-(3-isopropyl-2-(7-methyl-[1,2,4]triazolo[4,3-a]pyridin-6-yl)-1H-indol-5-yl)piperidin-1-yl)-N-methylacetamide], for which the IC50 in test [1] is 0.015 µM; in test [2], 0.245 µM; in test [3], 1.1 µM.

Regarding `CNC(=O)CN1CCC(c2ccc3[nH]c(-c4cc(C)c5nncn5c4)c(C(C)C)c3c2)CC1` [Example 16, 2-(4-(3-isopropyl-2-(8-methyl-[1,2,4]triazolo[4,3-a]pyridin-6-yl)-1H-indol-5-yl)piperidin-1-yl)-N-methylacetamide], the IC50 in test [1] worked out at 0.002 µM; in test [2], 0.0102 µM; in test [3], 2.52 µM.

For the compound `CNC(=O)CN1CCC(c2ccc3[nH]c(-c4ccc5nnc(C)n5c4)c(C(C)C)c3c2)CC1` [Example 17, 2-(4-(3-isopropyl-2-(3-methyl-[1,2,4]triazolo[4,3-a]pyridin-6-yl)-1H-indol-5-yl)piperidin-1-yl)-N-methylacetamide], the figures for the IC50 in test [1], in test [2] and in test [3] were 0.0447 µM, 0.0314 µM and 2.77 µM, respectively.

As to `Cc1cc2nncn2cc1-c1[nH]c2ccc(C3CCN(CC(=O)N(C)C)CC3)cc2c1C(C)C` [Example 18, 2-(4-(3-isopropyl-2-(7-methyl-[1,2,4]triazolo[4,3-a]pyridin-6-yl)-1H-indol-5-yl)piperidin-1-yl)-N,N-dimethylacetamide], the IC50 is 0.0659 µM in test [1], 0.715 µM in test [2] and 0.685 µM in test [3].

`Cc1nnc2ccc(-c3[nH]c4ccc(C5CCN(CC(=O)N(C)C)CC5)cc4c3C(C)C)cn12` [Example 19, 2-(4-(3-isopropyl-2-(3-methyl-[1,2,4]triazolo[4,3-a]pyridin-6-yl)-1H-indol-5-yl)piperidin-1-yl)-N,N-dimethylacetamide]: the results for the IC50 in test [1], in test [2] and in test [3] were 0.0486 µM, 0.0296 µM and 1.66 µM, respectively.
